Data from US20250320496A1, “MODULATION OF ABCB11 GENE TRANSCRIPTION USING ANTISENSE OLIGONUCLEOTIDES TARGETING REGULATORY RNAS” (CAMP4 Therapeutics Corporation, priority 2022, published 2025).
Strand notation (5' to 3'): a small letter for the sugar, then the base; units joined by * are phosphorothioate-linked, units joined directly phosphodiester-linked; [ ] holds rarer units or linkages, { } end groups; capitals alone tell only the bases. e = 2'-O-(2-methoxyethyl) (MOE); l = locked nucleic acid (LNA); [5mC] = 5-methylcytosine; d = 2'-deoxy (DNA)

System: human ABCB11 mRNA
Test: ASO treatment of primary human hepatocytes (PHH), ABCB11 mRNA by RT-qPCR normalized to B2M
Assay type: cell-based
Details: primary human hepatocytes; for ABCB11 mRNA FC (5 μM ASO vs. UNT): normalized to untreated PHHs (UNT); for ABCB11 FC mRNA (5 μM ASO vs. untreated): 5 μM ASO with PO-modifications, normalized to untreated hepatocytes
Experimental: Primary human hepatocytes (PHH) were thawed using Lonza Human Cryopreserved Hepatocyte Thawing Medium and plated in 96-well collagen-coated plates (5.5-6.0×10^4 cells per well). Four hours later, the media was replaced with sterile-filtered QualGro™ Hepatocyte Culture Medium (BioIVT) containing antibiotic supplement, 0.3 mg/ml Matrigel® matrix (Corning®), and ASO at the desired concentration (e.g., 1.25 μM, 2.5 μM, 5 μM, or 10 μM). After 72 hrs., cells were harvested by aspirating media, washing once with phosphate-buffered saline (PBS), and lysed with 150 μl of Buffer RLT lysis buffer (Qiagen®). Plates were frozen at-80° C. during cell lysis. After thawing, total RNA was isolated using the Qiagen RNEasy kit as instructed by manufacturer. cDNA (random-primed) was synthesized from 10 μl of RNA using the LifeTech High Capacity cDNA Reverse Transcription kit. 2 μl of cDNA was used for reverse transcription-quantitative PCR (RT-qPCR) analyses using standard Taqman” reagents from Applied Biosystems™ to measure ABCB11 and CYP7A1 gene expression. Gene expression data was normalized to the housekeeper gene, beta-2-microglobulin (B2M).
To assess the ability of ASOs targeting ABCB11 regRNAs to modulate the expression of human ABCB11, 195 ASOs targeting the human ABCB11 regRNAs were synthesized. These initial ASOs were screened in PHHs at 5 μM to determine their efficacy in increasing human ABCB11 mRNA using quantitative PCR. This initial screen identified 10 ASOs that induced increased expression of ABCB11 mRNA by more than 1.5-fold (as compared to untreated PHHs).

In the case of “CO-7165 (antisense eT*eT*eA*eA*eT*eT*e[5mC]*eT*eA*e[5mC]*eA*eG*eA*eG*eG*eG*eA*eG*e[5mC]*eA)”, the “ABCB11 mRNA FC (5 μM ASO vs. UNT)” value is reported as 1.329 fold change.

In the case of “CO-7070 (e[5mC]*eA*eT*eT*lT*dA*dG*dA*lG*dA*d[5mC]*dA*lA*dA*dG*eA*lA*eT*e[5mC]*eG; antisense)”, the “ABCB11 mRNA FC (5 μM ASO vs. UNT)” value is reported as 1.044 fold change.

“CO-6673 (antisense eG*eA*eA*eG*eG*dA*d[5mC]*dA*d[5mC]*dA*dA*dT*dT*dT*d[5mC]*eT*eG*eT*eA*eG)” was tested, and the “ABCB11 mRNA FC (5 μM ASO vs. UNT)” value was 1.313 fold change.

In the case of “CO-7209 (eT*eT*eT*eG*eG*d[5mC]*dG*eT*dT*dA*eT*dT*dA*eA*dT*dT*e[5mC]*dT*dA*e[5mC]*eA*eG*eA*eG; antisense)”, the “ABCB11 mRNA FC (5 μM ASO vs. UNT)” value is reported as 1.262 fold change.

“CO-11212 (antisense eG*eT*lGeGlAeGl[5mC]*eA*lA*eA*l[5mC]*eT*lA*eGlGe[5mC]lAe[5mC]*eT*eG)” was tested, and the “ABCB11 FC mRNA (5 μM ASO vs. untreated)” value was 2.44 fold change.

In the case of “CO-7157 (antisense eG*eT*eG*eG*eA*dG*d[5mC]*dA*dA*dA*d[5mC]*dT*dA*dG*dG*e[5mC]*eA*e[5mC]*eT*eG)”, the “ABCB11 mRNA FC (5 μM ASO vs. UNT)” value is reported as 1.195 fold change.

In the case of “CO-7046 (antisense eT*eG*eT*eG*eT*eT*eT*eT*eG*e[5mC]*eT*eT*eG*eG*eT*e[5mC]*eA*eA*eG*eA)”, the “ABCB11 mRNA FC (5 μM ASO vs. UNT)” value is reported as 1.243 fold change.

“CO-4483 (antisense eT*e[5mC]*eA*e[5mC]*eA*eA*eA*eT*eA*eG*eA*eT*eT*eG*eA*eG*eG*eG*eT*e[5mC])” was tested, and the “ABCB11 mRNA FC (5 μM ASO vs. UNT)” value was 1.041 fold change.

For “CO-6987 (antisense eT*eG*eG*eA*lT*dG*dT*dA*lG*dA*dT*dG*lA*dA*dT*eG*lG*e[5mC]*eA*eA)”, the “ABCB11 mRNA FC (5 μM ASO vs. UNT)” value was 1.026 fold change.

In the case of “CO-7052 (antisense eT*e[5mC]*eA*e[5mC]*e[5mC]*eT*eT*eG*eG*eT*eT*e[5mC]*e[5mC]*e[5mC]*e[5mC]*e[5mC]*eT*eG*e[5mC]*eT)”, the “ABCB11 mRNA FC (5 μM ASO vs. UNT)” value is reported as 1.046 fold change.

With “CO-6973 (antisense eA*eA*eA*eA*eA*eT*eG*eGeGeT*eGeT*eG*eG*eA*eT*eG*eT*eA*eG)” the “ABCB11 mRNA FC (5 μM ASO vs. UNT)” value was 1.325 fold change.

“CO-6975 (antisense e[5mC]*eT*eG*eA*eA*eG*eT*eG*eG*eA*eG*eG*eT*eG*eG*eT*eG*eG*eA*eA)” was tested, and the “ABCB11 mRNA FC (5 μM ASO vs. UNT)” value was 1.34 fold change.

“CO-7017 (antisense eA*eA*eG*eT*eG*eA*eG*dG*d[5mC]*dA*dT*d[5mC]*dA*dG*dG*dT*dA*eA*eG*eT*eT*e[5mC]*e[5mC]*eT)” was tested, and the “ABCB11 mRNA FC (5 μM ASO vs. UNT)” value was 1.182 fold change.

With “CO-7100 (eA*eT*e[5mC]*eT*eG*dG*dA*dA*eA*dA*dT*dA*dA*eT*dG*d[5mC]*d[5mC]*eT*eT*eT*e[5mC]*eT; antisense)” the “ABCB11 mRNA FC (5 μM ASO vs. UNT)” value was 1.406 fold change.

For “CO-3992 (antisense eT*eG*eT*eT*eT*e[5mC]*e[5mC]*eT*eA*eG*eT*eA*e[5mC]*e[5mC]*eA*eA*eG*eA*eA*eT)”, the “ABCB11 mRNA FC (5 μM ASO vs. UNT)” value was 1.388 fold change.

With “CO-7177 (antisense eG*eT*eG*eG*lA*dG*d[5mC]*dA*lA*dA*d[5mC]*dT*lA*dG*dG*e[5mC]*lA*e[5mC]*eT*eG)” the “ABCB11 mRNA FC (5 μM ASO vs. UNT)” value was 1.455 fold change.

In the case of “CO-4018 (antisense eA*eT*eG*eG*e[5mC]*e[5mC]*eG*eA*eA*eT*eA*eG*eA*eT*eT*eG*eA*eA*eT*eA)”, the “ABCB11 mRNA FC (5 μM ASO vs. UNT)” value is reported as 1.124 fold change.

In the case of “CO-7012 (antisense eT*eG*eT*eG*eG*dA*dT*lG*dT*dA*lG*dA*dT*lG*dA*dA*lT*dG*dG*e[5mC]*eA*eA*eG*eG)”, the “ABCB11 mRNA FC (5 μM ASO vs. UNT)” value is reported as 0.985 fold change.

“CO-4491 (antisense eG*eA*eG*eG*eT*eT*eG*eA*e[5mC]*eA*eA*eA*eT*eA*eG*eG*eT*eG*eT*eG)” was tested, and the “ABCB11 mRNA FC (5 μM ASO vs. UNT)” value was 1.101 fold change.

For “CO-7205 (eT*eT*eG*eG*e[5mC]*dG*dT*dT*eA*dT*dT*dA*dA*eT*dT*d[5mC]*dT*eA*e[5mC]*eA*eG*eA; antisense)”, the “ABCB11 mRNA FC (5 μM ASO vs. UNT)” value was 1.278 fold change.

For “CO-4505 (antisense eG*eA*eG*e[5mC]*eA*e[5mC]*eA*e[5mC]*eA*eT*eT*e[5mC]*eA*e[5mC]*eT*e[5mC]*e[5mC]*eA*eT*eT)”, the “ABCB11 mRNA FC (5 μM ASO vs. UNT)” value was 1.011 fold change.

For “CO-6669 (antisense eG*eT*eT*eT*eA*eG*eT*eT*eG*eA*e[5mC]*eT*eG*e[5mC]*eA*eG*eA*eG*eG*eG)”, the “ABCB11 mRNA FC (5 μM ASO vs. UNT)” value was 1.291 fold change.

In the case of “CO-7114 (eG*eT*eG*eT*eT*eT*dT*dG*d[5mC]*dT*dT*dG*dG*dT*d[5mC]*dA*eA*eG*eA*eG*eG*eA; antisense)”, the “ABCB11 mRNA FC (5 μM ASO vs. UNT)” value is reported as 1.47 fold change.

“CO-7028 (antisense eA*e[5mC]*e[5mC]*eG*eA*e[5mC]*eA*eG*eT*eG*eA*eG*e[5mC]*eT*eT*eA*eT*e[5mC]*eT*eG)” was tested, and the “ABCB11 mRNA FC (5 μM ASO vs. UNT)” value was 1.49 fold change.

For “CO-7031 (antisense eA*eA*eA*eG*eA*eA*eT*e[5mC]*eG*e[5mC]*eT*eG*eT*eG*eG*e[5mC]*eA*eG*eT*eT)”, the “ABCB11 mRNA FC (5 μM ASO vs. UNT)” value was 1.212 fold change.

In the case of “CO-6990 (antisense eT*eG*lG*eA*eT*lG*eT*eA*lG*eA*eT*lG*eA*eA*lT*eG*eG*l[5mC]*eA*eA)”, the “ABCB11 mRNA FC (5 μM ASO vs. UNT)” value is reported as 1.16 fold change.

In the case of “CO-7001 (antisense eG*eT*eG*eA*lG*eG*e[5mC]*eA*lT*e[5mC]*eA*eG*lGeT*eA*eA*lG*eT*eT*e[5mC])”, the “ABCB11 mRNA FC (5 μM ASO vs. UNT)” value is reported as 1.237 fold change.

“CO-4029 (antisense eA*eT*eA*e[5mC]*eT*eT*eG*eT*e[5mC]*eT*e[5mC]*eT*eG*e[5mC]eA*eA*eA*eT*e[5mC]*e[5mC])” was tested, and the “ABCB11 mRNA FC (5 μM ASO vs. UNT)” value was 0.908 fold change.

For “CO-4501 (antisense eG*e[5mC]*eA*eT*eG*eG*eT*eA*eG*e[5mC]*eT*eA*eG*eT*eG*eA*eT*eA*eA*eT)”, the “ABCB11 mRNA FC (5 μM ASO vs. UNT)” value was 1.023 fold change.

“CO-4509 (antisense eT*eG*eG*eA*eT*eG*eT*eA*eG*eA*eT*eG*eA*eA*eT*eG*eG*e[5mC]*eA*eA)” was tested, and the “ABCB11 mRNA FC (5 μM ASO vs. UNT)” value was 1.233 fold change.

For “CO-7104 (eT*eA*eT*e[5mC]*eT*dG*dG*eA*dA*dA*eA*dT*dA*eA*dT*dG*e[5mC]*d[5mC]*dT*eT*eT*e[5mC]*eT*eA; antisense)”, the “ABCB11 mRNA FC (5 μM ASO vs. UNT)” value was 0.918 fold change.

For “CO-4507 (antisense eG*eA*eA*eG*eA*eA*eT*eG*eG*eG*eA*eG*e[5mC]*eA*eA*eT*e[5mC]*e[5mC]*eG*e[5mC])”, the “ABCB11 mRNA FC (5 μM ASO vs. UNT)” value was 0.992 fold change.

For “CO-11236 (antisense eG*eT*eGeGlAeGe[5mC]*eA*eA*lA*e[5mC]*eT*eA*eGlGe[5mC]eAe[5mC]*eT*eG)”, the “ABCB11 FC mRNA (5 μM ASO vs. untreated)” value was 1.60 fold change.

For “CO-7044 (antisense eT*eT*eT*eT*eG*e[5mC]*eT*eT*eG*eG*eT*e[5mC]*eA*eA*eG*eA*eG*eG*eA*eA)”, the “ABCB11 mRNA FC (5 μM ASO vs. UNT)” value was 0.943 fold change.

In the case of “CO-3991 (antisense eG*eG*eG*eA*eT*eG*eA*e[5mC]eT*e[5mC]*e[5mC]eT*eA*eA*eA*eA*eA*eT*eG*eG)”, the “ABCB11 mRNA FC (5 μM ASO vs. UNT)” value is reported as 1.614 fold change.

In the case of “CO-11198 (antisense eT*eG*eT*eT*eTeTeG*e[5mC]*eT*eT*eG*eG*eT*e[5mC]eAeA*eG*eA*eG*eG)”, the “ABCB11 FC mRNA (5 μM ASO vs. untreated)” value is reported as 0.97 fold change.

In the case of “CO-7154 (antisense eA*e[5mC]*e[5mC]*eT*eT*dA*dG*eG*dA*dG*eG*dA*dT*eT*dA*dT*eT*dT*dA*eA*e[5mC]*e[5mC]*eT*e[5mC])”, the “ABCB11 mRNA FC (5 μM ASO vs. UNT)” value is reported as 1.274 fold change.

In the case of “CO-6978 (antisense eG*eA*eG*eG*e[5mC]*eA*eT*e[5mC]*eA*eG*eG*eT*eA*eA*eG*eT*eT*e[5mC]*e[5mC]*eT)”, the “ABCB11 mRNA FC (5 μM ASO vs. UNT)” value is reported as 1.456 fold change.
